Measurements taken from patent US20260265178A1, “TERTIARY AMINE DERIVATIVES AND THEIR USES FOR TREATING A VIRAL INFECTION” (ENYO PHARMA, priority 2022, published 2026).
Where two headings read alike, the source gives them in different places.

Legend:
[1] = tested on: Respiratory Syncytial Virus (RSV); assay: Cytopathic effect (CPE) assay, HEp-2 cells infected by RSV, CellTiter-Glo viability readout; format: cell-based; settings: for IC50: HEp-2 cells, RSV MOI 0.5, 3 days, CellTiter-Glo luminescence
Method: Cytopathic Effect (CPE) Assay Experimental Procedure:
• RSV titer: 6.9×10^6 pfu/ml • MOI=pfu used for infection/cell number • 1) HEp-2 cells were seeded in 384-well plates at 5000 cells per well in 25 μl assay medium and incubated for 24 h at 37° C. in 5% CO2. Cells were seeded in each well expect for the top row, which contains medium only (low control). • 2) Compounds were dispensed using the Echo550 Liquid Handler. All compounds were used at 10 mM stock concentration. The positive control Ribavirin was included as control compound in all assays. • 3) Cells were expected to double once over 24 h. • 4) The cells were infected the next day at RSV MOI 0.5, adding 5 μl virus diluted in assay medium. • 5) Non-infected cells were treated with 5 μl assay medium (high control) • 6) Plates were centrifuged at 400 rpm, 10 sec to allow the virus to sink onto the cells. • 7) Cells were incubated at 37° C. in 5% CO2 for 3 days. • 8) 10 μl CellTiter-Glo® (Promega) was added to all wells. • 9) The plate was incubated at RT for 30 min. • 10) Luminescence was measured on the Envision plate reader.

[2] = tested on: recombinant HRSV expressing the firefly luciferase; assay: In vivo anti-hRSV activity in a mouse model of infection (recombinant HRSV expressing firefly luciferase, bioluminescence); settings: BALB/C mice, 1 mpk intranasally, 5 days post infection, versus mock-treated, p<0.05
Method: FIG. 24: In vivo evaluation of compound #21 anti-hRSV activity in a mouse model of infection. FIG. 24A: Bioluminescence was measured by intranasal injection of 50 μl of D-luciferin (200 mM) and capture of photon emission from the chest at 5 days post infection using the IVIS system. Dorsal and ventral views of mice representative of the results are shown. FIG. 24B: Comparative bioluminescence between compound #21 and mock-treated mice 5 days post infection. Each data point represents mean±s.e.m. Brown-Forsythe Test and Welch ANOVA followed by Dunnett's multiple comparison test; * p<0.05
An engineered recombinant HRSV expressing the firefly luciferase was used in a mouse model of infection described in Rameix-Welti et al., Nature Communications, 2014. BALB/C mice were infected with 50×10^4 p.f.u. of virus and treated intranasally by 1 mpk compound #21 or vehicle (10 mice/group). Bioluminescence was measured by intranasal injection of 50 μl of D-luciferin (200 mM) and capture of photon emission from the chest at 5 days post infection using the IVIS system.
Dorsal and ventral views of mice representative of the results are shown at FIG. 24A. Comparative bioluminescence between compound #21 and mock-treated mice 5 days post infection are shown at FIG. 24B. Each data point represents mean±s.e.m. Brown-Forsythe Test and Welch ANOVA followed by Dunnett's multiple comparison test; * p<0.05.

[3] = human respiratory syncytial virus, 72 h, read-out: IC50

Compound | IC50 [1, 3] | further results
NC(=O)c1cccc(CN(Cc2cccc(C(N)=O)c2)C[C@@H]2CCCN(C(N)=O)C2)c1 [Compound #8] | 100 nM | –
C[C@@H](c1cccc(C(N)=O)c1)N(Cc1cccc(C(N)=O)c1)Cc1cccc(C(N)=O)c1 [Compound #13] | 4.4 nM | –
COC[C@H](c1cccc(C(=O)O)c1)N(Cc1cccc(C(=O)OC)c1)Cc1cccc(C(=O)OC)c1 [Compound #5] | – | IC50 ([1]; read-out: IC50): 2000 nM
NC(=O)c1ncn([C@@H]2O[C@H](CO)[C@@H](O)[C@H]2O)n1 [Ribavirin] | 15000 nM | –
COC[C@H](c1cccc(C(N)=O)c1)N(Cc1cccc(C(N)=O)c1)Cc1cccc(C(N)=O)c1 [Compound #21, 3-[[[(1S)-1-(3-carbamoylphenyl)-2-methoxy-ethyl]-[(3-carbamoylphenyl)methyl]amino]methyl]benzamide] | 0.15 nM | % viability of cells infected by RSV ([1]; compared with comparative and positive control compounds, FIGS. 1-23A): higher % of viability; IC50 times lower than IC50 of comparative compounds ([1]; compound #21 versus comparative compounds): ≥ 7 times; IC50 times lower than IC50 of the closest structural compound #4 ([1]; compound #21 versus compound #4): around 50 times; bioluminescent signal in the lung [2]: significantly reduced
COc1ccc(CN(Cc2cccc(C(N)=O)c2)Cc2cccc(C(N)=O)c2)cc1C(N)=O [Compound #10] | 5 nM | –
NC(=O)c1cccc(CN(Cc2cccc(C(N)=O)c2)CC2CCN(C(N)=O)C2)c1 (stereo not drawn) [Compound #17] | – | IC50 [1]: Not calculable
COC[C@H](c1cccc(C(=O)O)c1)N(Cc1cccc(C(=O)O)c1)Cc1cccc(C(=O)O)c1 [Compound #6] | – | IC50 ([1]; read-out: IC50): 200 nM
NC(=O)c1cccc(CN(Cc2cccc(C(N)=O)c2)CC2(F)CCCN(C(N)=O)C2)c1 (stereo not drawn) [Compound #20] | 130 nM | –
NC(=O)c1cccc(CN(Cc2cccc(C(N)=O)c2)C[C@H]2CCCN(C(N)=O)C2)c1 [Compound #11] | 4.5 nM | –
COc1cc(CN(Cc2cccc(C(N)=O)c2)Cc2cccc(C(N)=O)c2)cc(C(N)=O)c1 [Compound #14] | 70 nM | –
NC(=O)c1cccc(CN(Cc2cccc(C(N)=O)c2)Cc2ccc3[nH]ncc3c2)c1 [Compound #7] | 3900 nM | –
COC(=O)c1cccc(CN(Cc2cccc(C(=O)OC)c2)[C@H](CO)c2cccc(Br)c2)c1 [Compound #3] | – | IC50 ([1]; read-out: IC50): 3400 nM
NC(=O)COCCN(Cc1cccc(C(N)=O)c1)Cc1cccc(C(N)=O)c1 [Compound #16] | 350 nM | –
NC(=O)c1cccc(CN(Cc2cccc(C(N)=O)c2)CC2CCCNC2)c1 (stereo not drawn) [Compound #12] | 130 nM | –
Cc1cn2nc([C@@H]3CCCCN3C(=O)c3cc(Cl)ccc3NS(C)(=O)=O)cc2nc1N1CC[C@H](N)C1 [Presatovir] | 1.1 nM | –
CNC(=O)COCCN(Cc1cccc(C(N)=O)c1)Cc1cccc(C(N)=O)c1 [Compound #9] | 2000 nM | –
CC(c1cccc(C(N)=O)c1)N(Cc1cccc(C(N)=O)c1)Cc1cccc(C(N)=O)c1 (stereo not drawn) [Compound #15] | 1.5 nM | –
COC[C@H](c1cccc(Br)c1)N(Cc1cccc(C(=O)OC)c1)Cc1cccc(C(=O)OC)c1 [Compound #4] | – | IC50 ([1]; read-out: IC50): 7 nM
NC(=O)c1cccc(CN(Cc2cccc(C(N)=O)c2)CC2CCCN(C(N)=O)C2)c1 (stereo not drawn) [Compound #18] | 8 nM | –
